The subject of assay [1] is Granta (-4, -22 and -519) mantle cell lymphoma cell lines. Put plainly: MTT cell viability assay, Granta. In kind it is cell-based, human. Particulars: for IC50: Homo sapiens, 96 h, Granta-4, -22, -519, MTT.
Experimental: Cells and Reagents. Human cancer cell lines used herein include prostate (LNCaP, PC3, DU145), colon (HCT116), lung (A549), breast (MCF7) purchased from American Type Culture Collection (Rockville, Md.) and mantle cell lymphoma (Granta-4, -22 and -519) were maintained in RPMI 1640 medium (Mediatech, Va.) supplemented with 10% fetal bovine serum, 2 mM sodium pyruvate and 100 units/ml penicillin/streptomycin at 37° C. in a humidified atmosphere of 5% CO2.
Assay [2] relates to HCT116 colon cancer cells. As to the kind of experiment: SCID mouse HCT116 colon cancer xenograft. Format: in vivo, SCID mice. Particulars: for survival: i.p. for 4 weeks, NSC348884 1.5 mg/kg Mon/Wed/Fri, doxorubicin 20 ug/kg Mon. Here is the method:
SCID mice were inoculated with 10×10^6 HCT116 colon cancer cells in their flanks to form measurable tumors in the range 60-100 mm^3. Mice were pair matched with 12 mice per arm. NSC348884 was administered (Monday, Wednesday, Friday), Doxorubicin (Monday), combination or vehicle by intra-peritoneal injection each for 4 weeks. Measurements of tumor growth were performed twice a week and tumor volume estimated according to the formula: [(width)^2×length]/2. Mice were weighed before the beginning of the experiment and twice a week thereafter to check for signs of toxicity. Control mice (upper panel, first bar) were treated with vehicle (DMSO), NSC348884 at 1.5 mg/kg NSC348884 (upper panel, second bar), very low dose doxorubicin at 20 ug/kg (upper panel, third bar), and the combination of NSC348884/doxorubicin (upper panel, fourth bar).

Assay [3] deals with p53. As to the kind of experiment: p53 immunocytochemistry. In kind it is cell-based, human. Particulars: LNCaP and A549, 5 μM, 6 h, versus vehicle. The source says:
Mounting evidences indicate that NPM negatively regulates tumor suppressor p53 through interaction with p53 directly to prevent its phosphorylation on Ser15 (Maiguel et al., 2004) or through binding with p14ARF to impair the ARF-Hdm2 association and increase Hdm2/p53 complex formation (Gjerset, 2006). NPM knockdown by small interfering RNA enhances p53 phosphorylation and transcriptional activity. Therefore, inhibition of NPM by NSC348884 could affect p53 status. To address this, LNCaP cells were untreated and treated with different dosage of NSC348884 for 2 h to 24 h, and the changes in p53 protein and phosphorylation levels were determined by Western blot. Indeed, NSC348884 increased both p53 protein level and phosphorylation on Ser15 in a dose-dependent manner after 2 h of incubation (FIG. 5A).
Immunocytochemistry. LNCaP, A549 or HCT116 cells grown on cover slips were treated with DMSO or 5 μM of NSC348884 for 6 hr and then fixed in cold methanol:acetone (3:7) for 5 minutes. The cover slips were washed twice with cold PBS and blocked with blocking buffer (1% BSA, 0.01% saponin and 1% normal mouse serum in PBS) for 1 hr at room temperature. The cover slips were then immunostained using anti-p53 antibody at the dilution 1:100 in blocking buffer overnight at 4° C. […]

The test system of a further assay is LNCaP. Put plainly: Apoptosis markers by immunoblotting (PARP cleavage, H2AX phosphorylation). In kind it is cell-based, human. Particulars: 4 and 5 μM. Here is the method: Immunoblotting. LNCaP or HCT116 cells were lysed in NP-40 lysis buffer containing 50 mM Tris-Cl (pH 7.4), 0.15 M NaCl, 0.5% NP-40, 1 mM DTT, 50 mM sodium fluoride and 2 μl/ml of a protease inhibitor cocktail (Sigma, St. Louis, Mo.). Protein concentrations were-determined using the Bio-Rad protein assay kit (Hercules, Calif.) and 50 μg of protein was resolved by electrophoresis on a 10% SDS-PAGE. The proteins were then transferred onto a nitrocellulose membrane and nonspecific binds were blocked by incubating with 5% nonfat milk in TBST buffer (0.01 M Tris-Cl, pH 8.0, 0.15 M NaCl, 0.5% Tween-20) at room temperature for 1 hr. The membrane was subjected to the indicated antibodies and the proteins were detected by the SuperSignal West Pico detection system (Pierce, Rockford, Ill.). For native PAGE gel experiment, the samples were not denatured by heating and the electrophoresis was run in the absence of SDS.

Assay [4] deals with p53. Put plainly: p53 / p21 Western blotting. In kind it is cell-based, human.
A further assay concerns the target T1, NPM oligomer (Homo sapiens, UniProt P06748).
T1 construct: endogenous in cells; host or cells: LNCaP and HCT116
As to the kind of experiment: NPM oligomer formation by native PAGE / immunoblotting. In kind it is cell-based. Particulars: LNCaP and HCT116 cells, 5 and 6 μM, 24 hr. The method, then: (§1) To examine whether NSC348884 specifically interacts with NPM and disrupts its oligomer formation, LNCaP and HCT116 cells with wild type NPM (no translocations) were treated with varying concentrations of NSC348884 (0, 5, 6 μM) for 24 hr, lyzed under non-denaturing conditions and analyzed by native PAGE which is an excellent tool for detecting oligomers and aggregates since the protein retains its folded conformation. We utilized 14-3-3 which forms dimers as a control. […] The two bands shown in HCT116 represent different isoforms of 14-3-3 proteins. Taken together, NSC348884 is able to bind to NPM and interfere with oligomer formation of NPM specifically.
(§2) Immunoblotting. LNCaP or HCT116 cells were lysed in NP-40 lysis buffer containing 50 mM Tris-Cl (pH 7.4), 0.15 M NaCl, 0.5% NP-40, 1 mM DTT, 50 mM sodium fluoride and 2 μl/ml of a protease inhibitor cocktail (Sigma, St. Louis, Mo.). Protein concentrations were-determined using the Bio-Rad protein assay kit (Hercules, Calif.) and 50 μg of protein was resolved by electrophoresis on a 10% SDS-PAGE. […] The membrane was subjected to the indicated antibodies and the proteins were detected by the SuperSignal West Pico detection system (Pierce, Rockford, Ill.). […]

Another assay deals with LNCaP prostate cell line. Put plainly: MTT cell viability assay, LNCaP. Particulars: Homo sapiens, 96 h, 4 days. Format: cell-based. Here is the method:
NPM plays an essential role in cellular activities such as ribosome biogenesis, cell proliferation, apoptosis and centrosome duplication. Therefore, inhibition of NPM should affect cell growth. To determine the effect of NPM inhibitor NSC348884 on cancer cell proliferation, cell viability assays were conducted on LNCaP and Granta (human mantle cell lymphoma) cells (Granta-519, -4, -22) with varying concentrations of NSC348884 over 4 days. […] The difference in IC50 is attributed to the differential proliferative capacity of the two types of cancer cell lines. Since Rev peptide binds to NPM and potentates the doxorubicin-induced decrease of cellular viability and inhibition of tumor growth in nude mice (Chan et al., 2005), we evaluated if NSC348884 would be additive or synergistic with doxorubicin, a therapy commonly used in this disease. An IC50 of 0.01-0.02 μM for doxorubicin was established for all 3 Granta cell lines, while at 0.1 nM doxorubicin had no effect on cell viability
Cells and Reagents. […]
Cell Viability Assays. […] The media and MTT dye were aspirated, and 100 μL dimethyl sulfoxide (DMSO) was added to each well, absorbance was read at 540 nm on a plate reader (Wallac Vector, PerkinElmer). Data was expressed as the percent survival of control calculated from the absorbance, corrected for background.

The test system of assay [5] is MCF7, PC-3, DU145 and Granta cells. Put plainly: Annexin V staining and flow cytometry. Format: cell-based, human. The note with it: several different cancer cell lines, 24 h. The method, then:
Furthermore, apoptosis induced by NSC348884 was confirmed by Annexin V staining and flow cytometry (FACS) analysis.
(§3) Apoptosis Assays. Drug treated LNCaP cells were examined for apoptotic morphology using a fluorescence staining technique as described previously (Qi and Martinez, 2003). Briefly, cells were exposed to DMSO or 1 to 5 μM of NSC348884 for 24 hr and were harvested by trypsinization. After staining with a mixed dye solution containing […] each of acridine orange and ethidium bromide the morphology of the cells were observed by fluorescence microscopy, and the number of apoptotic cells was quantified. Studies were performed in triplicate and mean+SD calculated. In all cases a minimum of 200 cells were counted for each sample. Using Annexin V staining to detect apoptosis, treated MCF-7, PC-3, DU145 and Granta (−519, −4, −22) cells were harvested by trypsinization and rinsed with cold PBS once. After centrifugation for 5 min, cancer cells were resuspended in 500 μl of 1 Annexin V binding buffer (BioVision, Annexin V-FITC Reagent Kit, Cat. #1001-1000) and then added 1 μl of Annexin V-FITC and 1 μl of Propidium Iodide (BioVision, Annexin VFITC Reagent Kit). After incubation for 5 min at room temperature in the dark, the samples were analyzed by flow cytometry.

Another assay relates to LNCaP cells. As to the kind of experiment: Apoptosis by morphology (acridine orange/ethidium bromide fluorescent staining). Format: cell-based, human. Particulars: 24 hr. The method, then: as §3
Assay [6] relates to distinct cancer cell lines. Put plainly: Inhibition of cell proliferation, summary. Particulars: Homo sapiens. Format: cell-based. The method, then: Cell Viability Assays. LNCaP, Granta-4, Granta-22 and Granta-519 cell lines were seeded into 96-well tissue culture plates with 50,000 cells per well, cultured for 24 hours and exposed to NSC348884, doxorubicin or combination for four days. All studies were performed in triplicate and were repeated 3 different times. After incubation, 20 μL of 2 mg/m L 3-(4,5-dimethylthiazol-2-yl)-2,5-diphenyltetrazolium bromide (MTT) were added to each well and incubated an additional four hours. The media and MTT dye were aspirated, and 100 μL dimethyl sulfoxide (DMSO) was added to each well, absorbance was read at 540 nm on a plate reader (Wallac Vector, PerkinElmer). Data was expressed as the percent survival of control calculated from the absorbance, corrected for background.

In the next assay the test system is 14-3-3 dimer. Put plainly: 14-3-3 dimer formation control, native PAGE. Format: cell-based, human. The note with it: LNCaP and HCT116 cells, 5 and 6 μM, 24 hr. The method, then:
as §1, §2

T1 sequence (P06748 whole entry): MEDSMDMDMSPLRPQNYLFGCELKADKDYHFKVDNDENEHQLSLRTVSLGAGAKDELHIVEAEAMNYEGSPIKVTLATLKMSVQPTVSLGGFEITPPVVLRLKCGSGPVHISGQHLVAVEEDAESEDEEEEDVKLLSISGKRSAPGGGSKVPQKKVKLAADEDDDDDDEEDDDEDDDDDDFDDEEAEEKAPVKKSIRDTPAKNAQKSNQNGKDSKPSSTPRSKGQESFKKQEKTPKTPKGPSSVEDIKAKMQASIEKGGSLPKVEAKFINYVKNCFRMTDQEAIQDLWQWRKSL

The compound `COc1cccc2c1C(=O)c1c(O)c3c(c(O)c1C2=O)C[C@@](O)(C(=O)CO)C[C@@H]3O[C@H]1C[C@H](N)[C@H](O)[C@H](C)O1` [doxorubicin, reference compound] showed a concentration for half-maximal inhibition (IC50) in assay [1] (4 days) of 10 to 20 nM. Further, the “effect on cell viability” value in [1] (doxorubicin at 0.1 nM alone) is “no effect”. Besides, the survival in [2] is recorded as 41 days.
As for `Cc1ccc2nc(CN(CCN(Cc3nc4ccc(C)cc4[nH]3)Cc3nc4ccc(C)cc4[nH]3)Cc3nc4ccc(C)cc4[nH]3)[nH]c2c1` [NSC348884, N,N,N′,N′-tetrakis[(5-methyl-2-benzimidazolyl)methyl]-1,2-ethanediamine], the “p53 by immunocytochemistry staining” value with p53 [3] is “higher p53 proteins were induced”. Besides, the “PARP-cleavage and H2AX phosphorylation on Ser139” value in the assay on LNCaP was “correlated well with PARP-cleavage and induction H2AX phosphorylation”. Also, in the assay on p53 [4] (HCT116, 5 μM, 24 h), the p21 protein level entry is “up-regulated”. Moreover, the “p53 protein level and phosphorylation on Ser15” value in the assay on p53 [4] (LNCaP, after 2 h of incubation) is listed as “increased”. Moreover, the p53 level entry with p53 [4] (breast cancer cell line MCF7) is on record as “enhanced p53”. Also, the IC50 in [1] (4 days) was ~1700 nM; with LNCaP prostate cell line it was ~4000 nM; in [6] it was 1700 to 4000 nM. For the same compound, the “effect on cell viability” value in assay [1] (NSC348884 at 1 μM alone, 4 days, MTT) is listed as “no effect”. Further, the NPM oligomer formation result on NPM oligomer is listed as “disrupted”. Further, the “apoptosis by Annexin V binding” value in assay [5] is “induced apoptosis”. In addition, the “apoptosis by morphology, dose dependence” value in the assay on LNCaP cells (0-5 μM) is reported as “dose-dependent increase in apoptosis”. Further, the apoptosis by morphology with LNCaP cells (4 and 5 μM) is > 50%. The survival in assay [2] was 53 days. In assay [2] (versus control), the survival advantage entry is on record as “statistically significant survival advantage”. The 14-3-3 dimer formation entry in the assay on 14-3-3 dimer is on record as “no effect”.

(Values after US8063089B2, “Inhibitors of nucleophosmin (NPM) and methods for inducing apoptosis” (Arizona Board of Regents on Behalf of the University of …, priority 2007, dated 2011).)
